Publication PMC12580772, “A First-in-Human Study of ATM Inhibitor Lartesertib as Monotherapy in Patients with Advanced Solid Tumors” (Clinical Cancer Research, 2025)
“Also recorded” adds a separate entry of the source.

Legend:
[1] = test system: patient-derived xenograft models of triple-negative breast cancer; set-up: method as in PMID 37079339; details: lartesertib in combination with gartisertib; cited from earlier work
[2] = test system: human squamous cell carcinoma of the head and neck FaDu xenograft; set-up: method as in PMID 35405736; details: in combination with radiation; cited from earlier work
[3] = test system: HBC-x9 triple-negative breast cancer model; set-up: method as in PMID 35405736; details: combined with PARP inhibitors (rucaparib or niraparib), wild-type BRCA1/2; cited from earlier work
[4] = test system: patients with advanced solid tumors; set-up: method as in PMID 38407317; details: combination of lartesertib and tuvusertib; cited from earlier work
[5] = test system: cancer cell lines (head and neck, colon, lung, gastric, breast, and melanoma); set-up: method as in PMID 35405736; details: in vitro; cited from earlier work
[6] = test system: immune cell subsets and circulating immune factors; test: Immunophenotyping by flow cytometry and circulating immune factors; format: in vivo, human
Description: Serial blood samples collected at each visit were tested for total blood cell counts and immune cell subsets (e.g., T cells, B cells, and NK cells) to evaluate immunophenotyping by flow cytometry.
(§1) Circulating immune factors (e.g., IFN-β, IFN-γ, IL-1β, IL-2, IL-4, IL-6, IL-8, IL-10, IL-12p70, IL-13, TNF-α, and NKG2DL) were assessed using immunofluorescence assays. Additionally, blood samples were tested for plasma ctDNA by next-generation sequencing at Guardant Health using the OMNI panel. This analysis was conducted to evaluate surrogate markers of tumor dynamics, sensitivity, and resistance to treatment. Molecular response (MR) was assessed and defined as strongest change of—per visit averaged—somatic variant allele frequency (VAF) against the pretreatment level as follows: Best delta mean VAF = MIN (meanVAFvisiti – meanVAFpretreatment / meanVAFpretreatment)

[7] = PK analysis of lartesertib in plasma (non-compartmental); format: in vivo, human
Description: The PK of lartesertib was characterized during dose escalation using an intensive PK sample collection schedule. Blood samples were collected at multiple timepoints during Cycle 1, including on Day 1 (pre-dose at 0 hours and post-dose at 0.5, 1, 2, 3, 4, 6, 8, and 12 hours) and Day 8 (pre-dose at 0 hours and post-dose at 1, 2, 3, 4, 6, 8, and 12 hours). PK parameters were calculated from individual plasma concentration–time data using non-compartmental methods.

[8] = test system: acute myeloid leukemia model Mv4.11; set-up: method as in PMID 37079339; details: combination with the ATR inhibitor gartisertib; cited from earlier work
[9] = test system: ctDNA somatic variant allele frequency; test: Plasma ctDNA next-generation sequencing (Guardant Health OMNI panel), molecular response; format: in vivo, human; details: 21 evaluable patients
Description: as §1

[10] = test system: MiaPaCa2 pancreatic cancer model; set-up: method as in PMID 37079339; details: combination with the ATR inhibitor gartisertib; cited from earlier work

COc1cc2ncc3c(c2cc1-c1cn(C)nc1C)n(-c1c(F)cncc1OC)c(=O)n3C [lartesertib]
Tumor control rate [1]: 42% | Antitumor response [2]: significant dose-dependent antitumor responses | Efficacy and tolerability [3]: enhanced efficacy and acceptable tolerability | Patients experiencing SD for >16 weeks [4]: six of 42 | Radiotherapy sensitivity of cancer cell lines [5]: enhances the radiotherapy sensitivity | NK cell subsets ([6]; across all DLs): negative trend | Cytokine modulation (IFN-γ, IL-10, IL-6, IL-8, and TNF-α) ([6]; among different DLs): No relevant trends | Levels of most explored immune cell subsets ([6]; tested DLs, incl. myeloid-derived suppressor cells, T and B lymphocytes): did not cause any significant change | Exposure versus dose ([7]; 100-400 mg once daily): increased in a dose-related manner; also recorded: increased in a dose-dependent manner | half-life ([7]; human, plasma, oral, across 100-400 mg once daily, Day 1 and Day 8, read-out: Geometric mean elimination half-life (t1/2)): 5 to 7 h | Tmax ([7]; human, plasma, oral, across 100-400 mg once daily, Day 1 and Day 8, read-out: Median time to reach maximum observed plasma concentration (tmax)): 1 to 2 h | Tumor growth [8]: almost complete tumor regression | Patients with molecular response (ctDNA VAF decrease of ≥50% from baseline) [9]: four patients of 21 evaluable patients | Tumor growth [10]: complete tumor growth inhibition
